Measurements taken from the NIST ThermoML archive (doi:10.1021/je800110r).

Conditions: 283.15 K, Liquid, Vibrating tube method

CCCCCCCCCC [decane]
Conditions | mass density [kg/m3]
18830 kPa | 750.4
18862 kPa | 750.3
18886 kPa | 750.4
18919 kPa | 750.4
18953 kPa | 750.3
18975 kPa | 750.3
19001 kPa | 750.4
19028 kPa | 750.5
19063 kPa | 750.5
19088 kPa | 750.4
19116 kPa | 750.6
19142 kPa | 750.5
19169 kPa | 750.6
19195 kPa | 750.6
19222 kPa | 750.6
19245 kPa | 750.6
19296 kPa | 750.6
19437 kPa | 750.6
19472 kPa | 750.7
19500 kPa | 750.8
19524 kPa | 750.7
19561 kPa | 750.8
19589 kPa | 750.8
19627 kPa | 750.9
19660 kPa | 750.9
19683 kPa | 750.9
19715 kPa | 750.9
19742 kPa | 750.9
19762 kPa | 750.9
19786 kPa | 750.9
19807 kPa | 751
19842 kPa | 751
19870 kPa | 751
19891 kPa | 751
19925 kPa | 751
19953 kPa | 751
19975 kPa | 751
19996 kPa | 751
20017 kPa | 751
20039 kPa | 751.1
20064 kPa | 751.2
20082 kPa | 751.2
20101 kPa | 751.1
20121 kPa | 751
20149 kPa | 751.1
20174 kPa | 751.2
20196 kPa | 751.3
20219 kPa | 751.1
20248 kPa | 751.3
20268 kPa | 751.2
20291 kPa | 751.3
20310 kPa | 751.2
20345 kPa | 751.3
20368 kPa | 751.2
20387 kPa | 751.4
20410 kPa | 751.3
20429 kPa | 751.3
20462 kPa | 751.3
20488 kPa | 751.4
20508 kPa | 751.3
20558 kPa | 751.3
20627 kPa | 751.4
20648 kPa | 751.6
20677 kPa | 751.4
20697 kPa | 751.6
20731 kPa | 751.6
20762 kPa | 751.6
20782 kPa | 751.6
20813 kPa | 751.6
20841 kPa | 751.6
20865 kPa | 751.6
20894 kPa | 751.6
20922 kPa | 751.6
20942 kPa | 751.6
20966 kPa | 751.5
20994 kPa | 751.7
21015 kPa | 751.7
21043 kPa | 751.8
21074 kPa | 751.8
21095 kPa | 751.8
21127 kPa | 751.8
21151 kPa | 751.8
21173 kPa | 751.8
21194 kPa | 751.8
21211 kPa | 751.9
21240 kPa | 752
21271 kPa | 751.9
21296 kPa | 751.8
21321 kPa | 751.9
21353 kPa | 751.9
21370 kPa | 751.9
21403 kPa | 751.9
21752 kPa | 752.1
21805 kPa | 752.2
21889 kPa | 752.2
21915 kPa | 752.2
21938 kPa | 752.3
21972 kPa | 752.3
22007 kPa | 752.3
22031 kPa | 752.3
22058 kPa | 752.3
22089 kPa | 752.3
22113 kPa | 752.4
22147 kPa | 752.4
22178 kPa | 752.3
22201 kPa | 752.4
22236 kPa | 752.4
22272 kPa | 752.5
22295 kPa | 752.5
22335 kPa | 752.4
22359 kPa | 752.5
22386 kPa | 752.6
22411 kPa | 752.6
22446 kPa | 752.5
22479 kPa | 752.6
22503 kPa | 752.5
22527 kPa | 752.6
22564 kPa | 752.6
22597 kPa | 752.6
22622 kPa | 752.7
22663 kPa | 752.6
22697 kPa | 752.7
22722 kPa | 752.7
22759 kPa | 752.7
22793 kPa | 752.8
22818 kPa | 752.9
22847 kPa | 752.9
22881 kPa | 752.9
22919 kPa | 752.9
23017 kPa | 752.9
23052 kPa | 752.9
23107 kPa | 753
23142 kPa | 753
23169 kPa | 752.9
23192 kPa | 753.1
23212 kPa | 753.1
